From US20200030288A1, “STATIN FOR PREVENTION/REDUCTION OF ISCHEMIA-RELATED DAMAGE” (Fundacio Institut De Recerca De L'Hospial De La Santa Creu …, priority 2017, published 2020)

Experiments:
[1] = tested on: mouse model for myocardial ischemia; test: Mouse model of myocardial ischemia by coronary ligation: infarct size and 8-OH-dG oxidative damage; assay type: in vivo, Male CH3 mice; conditions: single i.p. dose 15 min after coronary ligation, 45 min ischemia; for reduction of size of infarction (% of total LV wall): vs vehicle-control
Method: (§1) Complete LAD coronary artery ligation was performed as follows. Male CH3 mice (8-10 weeks old, weighing 25-30 g) were intubated and anesthesized with a mixture of O2/isoflurane and mechanically ventilated (rate 90 breaths/min, tidal volume 0.1 mL). Rectal temperature was continuously monitored throughout the surgery and maintained within 37-38° C. using a heat pad and heat lamp. An anterior thoracotomy was performed; the heart was exposed and the LAD coronary artery was occluded with an intramural stitch (7-0 silk suture; consistent ligation of the left coronary artery as it emerges from under the left atrium) for 45 minutes. Success of complete coronary ligation was verified by electrocardiographic visualization of the ST-elevation-MI pattern that was monitored by high frequency ultrasounds with the Vevo2100 from Visualsonics and by the visualization of a pale, hypokinetic ventricle distal to the site of occlusion.
Ischemia was continued for another 30 min after administration of the single dose (i.e. altogether 45 min of ischemia), then mice were sacrificed and the heart was carefully excised for infarct size analysis.
(§2) Infarct size was determined by morphometric analysis. For this purpose, all mouse hearts were immersed in fixative solution (4% paraformaldehyde), embedded in OCT compound and cross-sectioned from apex to base (10 μm thick sections 200 μm distanced). Sections were stained with haematoxylin and eosin and morphometric infarct size analysis was determined using image analysis software (ImageJ, NIH). Infarct size was calculated by the sum of myocardial infarct areas between sections and expressed as a percentage of total LV wall. Three measurements per section were determined.
In addition, myocardial oxidative damage was also assessed. For this purpose, ischemic myocardial tissue was cut into 5-μm-thick slices for 8-OH-dG (Abcam ab48508) staining, a measurement indicative of oxidative stress-induced DNA-damage. Staining was calculated by a single blinded observer from an average of 5-fields/animal as % of stained area. Images were captured by Nikon Eclipse 80i microscope and digitized by Retiga 1300i Fast camera.

[2] = tested on: mouse model of myocardial ischemia; test: Mouse coronary ligation model with AMPK inhibitor given before atorvastatin; assay type: in vivo, mice; conditions: Compound C 30 mg/kg i.p. prior to atorvastatin 0.3 mg/kg at 15 min of ischemia; 45 min ischemia
Method: as §1
as §2, with “For this purpose, all mouse hearts were immersed in fixative solution (4% paraformaldehyde), embedded in OCT compound and cross-sectioned from apex to base (10 μm thick sections 200 μm distanced).” left out
In addition, myocardial oxidative damage was also assessed. […]

[3] = tested on: swine model of myocardial ischemia; conditions: 0.3 mg/kg i.v. at 15 min of ischemia
From the text: Cardiac rhythm, arterial oxymetry, and arterial pressure were continuously monitored during the procedure. Just before starting the procedure a perfusion of amiodarone and lidocaine was initiated as prophylaxis for malignant left ventricular arrhythmias. All animals of the study were subjected to the same antiarrhythmic pharmacological approach allowing a direct comparison between the groups. By percutaneous approach and fluoroscopy guidance ischemia was induced by complete coronary balloon occlusion of the mid-left anterior descending coronary artery. Contrast angiographies were performed to ensure total coronary occlusion.
Control animals were given intravenous placebo (saline) at 15 min of ischemia. Blood samples (serum) for further assessment of biomarkers of cardiac damage were taken at baseline (i.e. before MI induction or at time=0 min), and at 30 min, 60 min and 90 min after MI induction (ischemia).
Upon taking the 90 min blood sample, the pigs were sacrificed without reperfusion to obtain myocardial tissue for molecular studies and histology.
The concentration of IMA (Ischemic Modified Albumin), CFABP (Cardiac Fatty Acid Binding Protein) and Myoglobin was determined by the respective pig ELISA kits in the blood samples taken 30 min, 60 min and 90 min after MI induction and compared to their baseline values (prior to ischemia induction). These proteins were chosen based on the rationale that they are early markers for cardiac damage assessment due to ischemia.

RhoA = RhoA total and cytosolic/membrane fractions in ischemic myocardium by Western blot; assay type: in vivo, pigs
Method: After the ischemic period, the animals' hearts were arrested with potassium chloride and rapidly excised. […] In addition, the separation of the membrane and cytosolic fractions was performed by a modification of the lysis buffer protocol. Briefly, tissue powder was homogenized (1 mol/L NaCl, 20 mmol/L Tris pH 7.4, 1 mmol/L DTT and protease inhibitors) and centrifuged. The supernatant was collected (referred to as the cytosolic fraction) and pellets were resuspended, and the membrane proteins were extracted by incubation in 500 mmol/L Tris-HCl pH 7.4, 20% sodium dodecyl sulfate, 100 mmol/L sodium orthovanadate, and protease inhibitors. The extract was centrifuged and the supernatant was collected as the membrane fraction.
Protein concentration (in total myocardial tissue, in the cytoplasm fraction and in the membrane fraction) was quantified by the Pierce method. RhoA (Santa Cruz) was determined in total and cytosolic and membrane fractions of the ischemic cardiac tissue of all animals by Western Blot analysis. The intensity of the Western blot bands was detected with Chemi-Doc (Bio-Rad) and they were quantified with the Quantity one Software (Bio-Rad). Intensities are expressed in arbitrary units (AU).

eNOS = eNOS activation (P-eNOS Ser1177 / total eNOS) in pig myocardium by Western blot; assay type: in vivo, pigs; conditions: ischemic myocardium
From the text: (P-eNOS) or activated eNOS.

caspase-3 = test: Caspase-3 activation (cleaved / total caspase-3) in pig myocardium by Western blot; assay type: in vivo, pigs
Method: Myocardial tissue of all pigs included in Example 1 and Example 2 was obtained, pulverized and processed with lysis buffer for protein isolation as detailed in Example 6. Protein was quantified by the Pierce method and Western Blot analysis was performed to assess the levels of phosphorylated p53 (Ser15), total p53, cleaved caspase-3 and total caspase-3. The ratios phosphorylated p53/total p53 and cleaved Casp3/total caspase3 were calculated to ascertain how much of protein was activated.

MCP-1/CCL2 = MCP-1/CCL2 mRNA and protein expression in pig myocardium; assay type: in vivo, pigs
Method: The myocardium of pigs included in Example 1 and Example 2 was obtained, pulverized and processed with Tripure or lyses buffer for mRNA and protein isolation as detailed in Example 5 and Example 6, respectively. Both the mRNA levels and protein expression of MCP-1 were assessed. The threshold cycle (Ct) values were determined and normalized to the housekeeping gene 18 SrRNA in order to adjust for equal amounts of RNA whereas β-actin was used as protein loading control.

[4] = tested on: TLR4, TF and MCP-1 in PBMC; test: TLR4, TF and MCP-1 expression in circulating PBMC of ischemic pigs; assay type: in vivo
Method: Blood samples were also collected in EDTA at baseline (prior to ischemia) and after 90 min of ischemia from the femoral artery for PBMC isolation by the Ficoll method. To this end, 20 ml of blood were collected into EDTA tubes at three tested time-points (0, 30, and 90 min) in all animals. All blood samples were immediately subjected to Ficoll-paque Plus (Amersham Biosciences) density gradient centrifugation to isolate PBMCs. Samples were counted and then directly frozen in liquid nitrogen and stored at −80° C. until mRNA and protein isolation as described in Example 5 and Example 6. The mRNA expression level of the inflammatory markers related to innate immunity TLR4 (Toll-like receptor 4) and MCP-1, as well as […] (tissue factor) were determined by Real Time PCR analyses whereas protein expression of MCP-1 was also assessed. The threshold cycle (Ct) values were determined and normalized to the housekeeping gene 18SrRNA in order to adjust for equal amounts of RNA whereas Ponceau red was used for protein loading control.

rat model for ischemia = test: Rat model of myocardial infarction by coronary ligation: scar size 30 days after ischemia; assay type: in vivo, male SD rats; conditions: single dose 0.3 mg/kg 15 min after onset of ischemia; 30 days post-ischemia induction; vs vehicle-controls
Method: The study was performed in male SD rats (8-10 weeks old, weighing 250-300 g; Jackson Laboratory). MI was induced by LAD coronary artery ligation for 45 min. […] Afterwards hearts were carefully excised for morphometric assessment of infarct size.

[5] = tested on: hypercholesterolemic pigs with myocardial ischemia; test: Hypercholesterolemic pigs, 90 min LAD balloon occlusion: early cardiac damage markers; assay type: in vivo; conditions: 0.3 mg/kg i.v. at 15 min of ischemia
Method: To this end, 14 pigs were fed for 10 days a Western-type hypercholesterolemic diet [20%-saturated fat (beef tallow), 2%-cholesterol, 1%-cholic acid]. This hyperlipidemic diet contains 24.82% proteins, 64.20%of carbohydrates, 10.98% of fats and 16,834.7 kJ.
After this 10 day diet period animals underwent a closed-chest 90 min mid-left anterior descending (LAD) coronary balloon occlusion and the same experimental design described in Example 1.

[6] = tested on: hypercholesterolemic pigs with myocardial ischemia; test: Neutrophil infiltration (anti-Neutrophil Elastase staining) in ischemic myocardium of hypercholesterolemic pigs; assay type: in vivo; conditions: single i.v. dose 15 min after onset of ischemia, vs controls
Method: To this end, ischemic myocardial tissue of all hypercholesterolemic pigs included in Example 12 was obtained, embedded in OCT, and stained for neutrophils detection (anti-Neutrophil Elastase; Abcam). Staining was calculated by a single blinded observer from an average of 5-fields/animal as % of stained area. Images were captured by Nikon Eclipse 80i microscope and digitized by Retiga 1300i Fast camera.

AMPK = AMPK activation (P-AMPK Thr172 / total AMPK) in pig myocardium by Western blot; conditions: for levels of P-AMPK: vs controls
[7] = tested on: pig model of ischemia and reperfusion; test: Pig model of ischemia and reperfusion (hypercholesterolemic diet, 90 min occlusion, 2.5 h reperfusion); assay type: in vivo, pigs; conditions: 0.3 mg/kg i.v. after 75 min of ischemia
Method: Pigs were fed a hypercholesterolemic diet as in Example 11. After this 10-day diet period animals underwent a closed-chest 90 min mid-left anterior descending (LAD) coronary balloon occlusion. After 75 min of ischemia animals were randomized to intravenous infusion (femoral vein) of an active β-hydroxy acid derivative of simvastatin (R—OH—S; 0.3 mg/kg; n=12) or vehicle (0.9% NaCl; n=12). At minute 90, the balloon was deflated to achieve coronary artery reperfusion. Animals were reperfused for 2.5 h. Infarct size was determined morphometrically by Evan's Blue staining. To that end, 2.5 h post-reperfusion Evan's Blue dye was injected in the anesthetized pigs through the left atrium to outline the area-at-risk (AAR) after which the animals' hearts were arrested with potassium chloride and rapidly excised. Hearts were sectioned into 6 transverse slices parallel to the atrioventricular ring. Consecutive slices were alternatively collected for infarct size analysis (triphenyl tetrazolium chloride) and molecular studies of the ischemic and non-ischemic myocardium. Tissue samples obtained from the ischemic and non-ischemic myocardium all animals were pulverized and homogenized in Tripure® or lysis buffer for RNA and protein isolation, respectively. Protein levels of apoptosis markers (truncated-caspase-3) was assessed. Paraffin-embedded ischemic myocardial tissue of all animals was cut into 5-μm-thick slices for 8-hydroxyguanosine staining (Abcam ab48508), a measurement indicative of oxidative stress-induced DNA-damage, and OCT-embedded ischemic myocardial tissue of all animals was stained for neutrophil detection (anti-Neutrophil Elastase; Abcam). Staining was calculated by a single blinded observer from an average of 5-fields/animal as % of stained area. Images were captured by Nikon Eclipse 80i microscope and digitized by Retiga 1300i Fast camera. In addition, mitochondrial membrane potential (Δψm) was measured in the ischemic myocardium of all animals by flow cytometry using the ratiometric dye 5,5′,6,6′-tetrachloro-1,1′,3,3′-tetraethylbenzimidazol carbocyanine iodide (JC-1; Molecular Probes). Values were expressed as red fluorescence activity. Isolated mitochondria treated with valinomycin (Sigma), which decreases Δψm, were used as control (data not shown).

[8] = 30, 60 and 90 min after MI induction, vs controls
[9] = 90 min ischemic period, vs absence of treatment
[10] = ischemic myocardium, vs non-treated pigs
[11] = prior (0 min) or post (90 min) ischemic induction
[12] = ischemic myocardial tissue, 2.5 h reperfusion

## CC(ONC(=O)c1cc(C(F)(F)F)cc(C(F)(F)F)c1)C(=O)Nc1ccc(Cl)cc1 (stereo not drawn) [CCG1423]
[1]
  reduction of oxidative damage (8-OH-dG staining) within the ischemic myocardium: 70%
  reduction of size of infarction (% of total LV wall): around 50%

## c1cc(-c2cnn3cc(-c4ccc(OCCN5CCCCC5)cc4)cnc23)ccn1 [Compound C]
[2]
  effect on infarct size reduction achieved by atorvastatin: abolished
  effect on protection against oxidative damage (8-OHdG staining): abolished

## CC(C)c1c(C(=O)Nc2ccccc2)c(-c2ccccc2)c(-c2ccc(F)cc2)n1CC[C@@H](O)C[C@@H](O)CC(=O)O [atorvastatin]
[3]; [8]
  IMA (Ischemic Modified Albumin) blood levels: significantly reduced
  Myoglobin blood levels: significantly reduced
[3]; [9]
  overall reduction of CFABP levels: more than 75%
  overall reduction of IMA levels: more than 50%
  overall reduction of myoglobin levels: more than 75%
RhoA; 0.3 mg/kg i.v. at 15 min of ischemia, tissue at 90 min
  total amount of RhoA protein in the ischemic myocardium: not affected
RhoA; single dose after the onset of ischemia, infarcted pigs
  RhoA activation in the ischemic myocardium: inhibits
[1]
  reduction of size of infarction (% of total LV wall): around 50%
eNOS
  ischemia-induced eNOS activation (P-eNOS/eNOS): did not further enhance
caspase-3; ischemic myocardium
  levels of cleaved (active) caspase 3: reduced
caspase-3; myocardium
  total caspase-3: no changes
MCP-1/CCL2; [10]
  MCP-1 mRNA expression: significantly reduced
  MCP-1 protein expression: significantly reduced
MCP-1/CCL2; non-ischemic myocardial tissue
  MCP-1 expression: No changes
[4]; PBMC
  ischemia-triggered increase in MCP-1 expression, gene level: markedly attenuated
  ischemia-triggered increase in MCP-1 expression, protein level: markedly attenuated
[4]; [11]
  TF PBMC expression (mRNA): did not modify
  TLR4 PBMC expression (mRNA): did not modify
Rat model for ischemia
  reduction in scar size: 60%
[5]; already at 30 min
  CFABP: significant reduction
  IMA: significant reduction
  Myoglobin: significant reduction
[5]; vs control
  Percentage of reduction of CFABP: 60-75%
  Percentage of reduction of IMA: 60-75%
  Percentage of reduction of Myoglobin: 60-75%
[6]
  reduction in neutrophil myocardial infiltration: 57%
AMPK; entire heart
  total protein content of AMPK: No changes
AMPK; ischemic myocardium
  levels of P-AMPK: significantly increased
AMPK; non-ischemic cardiac tissue
  levels of P-AMPK: No changes

## CCC(C)(C)C(=O)OC1CC(C)C=C2C=CC(C)C(CCC(O)CC(O)CC(=O)O)C21 (stereo not drawn) [β-OH-simvastatin, β-hydroxy acid form of simvastatin]
[1]
  reduction of size of infarction (% of total LV wall): around 50%
[7]; assessed 2.5 h after reperfusion
  size of myocardial damage (ischemic damage+reperfusion damage; infarct size): decreased
[7]; [12]
  expression of cleaved caspase-3: significantly reduced
  mitochondrial potential (JC-1): preserved
  oxidative stress (8-hydroxyguanosine staining): decreased
  recruitment of neutrophils: limited
